From the CheMixHub ionic liquid set

Assay: xn = mol fraction of the nth substance listed

CCCCCCCCCCCCCC[n+]1ccccc1.O=C([O-])C(O)c1ccccc1 + CC(C)[C@H](N)C(=O)O + O
electrical conductivity [S/m], 101 kPa
Details | 293.15 K | 298.15 K | 303.15 K | 308.15 K | 313.15 K
x1 = 6.19e-06, x2 = 0.001799 | 0.00217 | 0.00247 | 0.00278 | 0.00312 | 0.00346
x1 = 6.85e-06, x2 = 0 | 0.00248 | 0.00278 | 0.00309 | 0.0034 | 0.0037
x1 = 8.87e-06, x2 = 0.0009002 | 0.00274 | 0.00311 | 0.00349 | 0.00388 | 0.00427
x1 = 1.146e-05, x2 = 0.001799 | 0.00366 | 0.00413 | 0.00464 | 0.0052 | 0.0057
x1 = 1.424e-05, x2 = 0 | 0.00472 | 0.00529 | 0.00587 | 0.0065 | 0.0071
x1 = 1.485e-05, x2 = 0.0009002 | 0.00439 | 0.00496 | 0.00555 | 0.0061 | 0.0068
x1 = 1.674e-05, x2 = 0.001799 | 0.0051 | 0.00578 | 0.0065 | 0.0072 | 0.008
x1 = 1.847e-05, x2 = 0.0009002 | 0.00537 | 0.00606 | 0.0068 | 0.0075 | 0.0083
x1 = 2.126e-05, x2 = 0 | 0.00671 | 0.0076 | 0.0084 | 0.0093 | 0.0101
x1 = 2.202e-05, x2 = 0.001799 | 0.00655 | 0.0074 | 0.0083 | 0.0093 | 0.0102
x1 = 2.264e-05, x2 = 0.0009002 | 0.00641 | 0.0072 | 0.0081 | 0.009 | 0.0099
x1 = 2.693e-05, x2 = 0.001799 | 0.00788 | 0.0089 | 0.01 | 0.0111 | 0.0123
x1 = 2.698e-05, x2 = 0.0009002 | 0.00756 | 0.0086 | 0.0096 | 0.0106 | 0.0117
x1 = 2.811e-05, x2 = 0 | 0.0086 | 0.0097 | 0.0108 | 0.0122 | 0.0131
x1 = 3.187e-05, x2 = 0.0009002 | 0.0089 | 0.01 | 0.0113 | 0.0125 | 0.0138
x1 = 3.257e-05, x2 = 0.001799 | 0.0094 | 0.0106 | 0.0119 | 0.0132 | 0.0146
x1 = 3.46e-05, x2 = 0 | 0.0103 | 0.0116 | 0.0129 | 0.0145 | 0.0157
x1 = 3.876e-05, x2 = 0.001799 | 0.0107 | 0.0121 | 0.0136 | 0.0152 | 0.0169
x1 = 3.93e-05, x2 = 0.0009001 | 0.0105 | 0.0119 | 0.0133 | 0.0148 | 0.0164
x1 = 4.108e-05, x2 = 0 | 0.0117 | 0.0131 | 0.0146 | 0.0161 | 0.0179
x1 = 4.549e-05, x2 = 0.001799 | 0.0119 | 0.0134 | 0.0151 | 0.0169 | 0.0188
x1 = 4.618e-05, x2 = 0.0009001 | 0.0116 | 0.0131 | 0.0147 | 0.0165 | 0.0183
x1 = 4.811e-05, x2 = 0 | 0.0129 | 0.0144 | 0.0161 | 0.0179 | 0.0198
x1 = 5.295e-05, x2 = 0.001799 | 0.0129 | 0.0146 | 0.0164 | 0.0183 | 0.0203
x1 = 5.324e-05, x2 = 0.0009001 | 0.0126 | 0.0142 | 0.0159 | 0.0178 | 0.0198
x1 = 5.388e-05, x2 = 0 | 0.0137 | 0.0154 | 0.0172 | 0.0191 | 0.0211
x1 = 5.982e-05, x2 = 0 | 0.0145 | 0.0163 | 0.0182 | 0.0202 | 0.0224
x1 = 6.012e-05, x2 = 0.0009001 | 0.0134 | 0.015 | 0.017 | 0.0191 | 0.0212
x1 = 6.078e-05, x2 = 0.001799 | 0.014 | 0.0158 | 0.0177 | 0.0198 | 0.0221
x1 = 6.559e-05, x2 = 0 | 0.0153 | 0.0172 | 0.0192 | 0.0213 | 0.0236
x1 = 6.609e-05, x2 = 0.0009001 | 0.0142 | 0.016 | 0.018 | 0.0202 | 0.0224
x1 = 6.788e-05, x2 = 0.001799 | 0.015 | 0.0169 | 0.0189 | 0.0211 | 0.0236
x1 = 7.081e-05, x2 = 0 | 0.016 | 0.018 | 0.02 | 0.0223 | 0.0246
x1 = 7.153e-05, x2 = 0.0009001 | 0.0149 | 0.0168 | 0.0189 | 0.0212 | 0.0236
x1 = 7.424e-05, x2 = 0.001799 | 0.0158 | 0.0179 | 0.0201 | 0.0224 | 0.0249
x1 = 7.604e-05, x2 = 0 | 0.0167 | 0.0187 | 0.0209 | 0.0232 | 0.0258
x1 = 7.714e-05, x2 = 0.0009001 | 0.0156 | 0.0176 | 0.0198 | 0.0223 | 0.0248
x1 = 8.025e-05, x2 = 0.001799 | 0.0166 | 0.0188 | 0.0211 | 0.0236 | 0.0262
x1 = 8.072e-05, x2 = 0 | 0.0173 | 0.0194 | 0.0217 | 0.0241 | 0.0266
x1 = 8.257e-05, x2 = 0.0009001 | 0.0163 | 0.0185 | 0.0208 | – | –

CCCC[N+](CCCC)(CCCC)Cc1ccccc1.[Cl-] + CC(C)[C@H](N)C(=O)O + O
101 kPa
Details | electrical conductivity, 298.15 K [S/m] | electrical conductivity, 303.15 K [S/m] | electrical conductivity, 308.15 K [S/m] | viscosity, 298.15 K [mPa·s] | viscosity, 303.15 K [mPa·s] | viscosity, 308.15 K [mPa·s]
x2 = 1.802e-05, x1 = 1.802e-05 | 0.0145 | 0.0163 | 0.0169 | – | 0.825 | 0.704
x2 = 1.804e-05, x1 = 5.406e-05 | 0.0303 | 0.0313 | 0.0331 | – | – | –
x2 = 1.805e-05, x1 = 9.009e-05 | 0.0341 | 0.0371 | 0.0391 | – | – | –
x2 = 4.506e-05, x1 = 1.802e-05 | 0.0166 | 0.0172 | 0.0185 | – | 0.838 | 0.719
x2 = 4.509e-05, x1 = 5.405e-05 | 0.0312 | 0.0322 | 0.0342 | – | – | –
x2 = 4.511e-05, x1 = 9.009e-05 | 0.0353 | 0.0383 | 0.0406 | 1.296 | – | –
x2 = 7.21e-05, x1 = 1.802e-05 | 0.0185 | 0.0193 | 0.0209 | – | 0.851 | 0.733
x2 = 7.214e-05, x1 = 5.405e-05 | 0.0325 | 0.0335 | 0.0356 | 1.273 | – | –
x2 = 7.218e-05, x1 = 9.009e-05 | 0.0365 | 0.0394 | 0.0421 | – | – | –
x2 = 9.913e-05, x1 = 1.802e-05 | 0.0205 | 0.0215 | 0.0234 | – | 0.864 | 0.748
x2 = 9.919e-05, x1 = 5.405e-05 | 0.0338 | 0.0346 | 0.0363 | 1.288 | – | –
x2 = 9.925e-05, x1 = 9.008e-05 | 0.0379 | 0.0409 | 0.0435 | – | 1.165 | –
x2 = 0.0001262, x1 = 1.802e-05 | 0.0222 | 0.0236 | 0.0249 | – | 0.878 | 0.763
x2 = 0.0001262, x1 = 5.405e-05 | 0.0347 | 0.0357 | 0.0377 | – | – | –
x2 = 0.0001263, x1 = 9.008e-05 | 0.0391 | 0.0421 | 0.0447 | – | – | –
x2 = 0.0001532, x1 = 1.802e-05 | 0.0235 | 0.0251 | 0.0266 | – | – | 0.779
x2 = 0.0001533, x1 = 5.405e-05 | 0.0356 | 0.0368 | 0.0389 | – | – | –
x2 = 0.0001534, x1 = 9.008e-05 | 0.0407 | 0.0435 | 0.0463 | – | – | –

CCO + CCCCCCCC(=O)[O-].c1c[nH+]c[nH]1
101.3 kPa, x1 = 1
Details | viscosity [mPa·s]
293.15 K | 1.21
303.15 K | 1

CCO + CCCCCCCCCCCCCCCC[N+](C)(C)C.[Br-] + O
Details | electrical conductivity [S/m]
298.2 K, 101.3 kPa, x2 = 0, x1 = 0.05064 | 0.00019

CCCCCC[n+]1ccn(C)c1C.O=S(=O)([N-]S(=O)(=O)C(F)(F)F)C(F)(F)F + CCCCCCCCCCCCCC[P+](CCCCCC)(CCCCCC)CCCCCC.O=S(=O)([N-]S(=O)(=O)C(F)(F)F)C(F)(F)F
Details | viscosity [mPa·s]
278.15 K, 100 kPa, x1 = 0.6 | 930
